In series [1] the test system is adjuvant-induced arthritis. Briefly: adjuvant-induced arthritis (AIA) model. The conditions noted are these: day 21, ELISA; MPT0G009 25 mg/kg, SAHA 200 mg/kg, indomethacin 1 mg/kg.
Protocol: (FIG. 8B) Hind paw volumes in the indicated group of rats were measured using a digital plethysmometer on the indicated day after AIA induction. […] (FIG. 8D) Serum levels of interleukin (IL)-1β (left panel) and IL-6 (right panel) on day 21 as measured by enzyme-linked immunosorbent assay (ELISA). […] (FIG. 8F) The bone mineral density (BMD, in mg/mm^3) and the bone mineral content (BMC, in mg) values for the bone tissue of the tarsus were analyzed using CT Analysis Software.
Series [2] concerns carrageenan-induced hind paw edema. In words: carrageenan-induced hind paw edema. The conditions noted are these: for carrageenan-induced hind paw edema: oral, 1 h before carrageenan, compound 9 25 mg/kg, SAHA 200 mg/kg, Indomethacin 5 mg/kg, measured 3 h after.
Protocol: A 0.5% (w/v) suspension of carrageenan in normal saline was administered to male Wistar rats (7-weeks) by intradermal injection into the base of the right hind paw. […] A positive control group was included in which rats were pretreated with 5 mg/kg Indomethacin. […] The results are expressed as the mean±SEM, with n=5. *p<0.05 compared to the control group; #p<0.05 for the comparison of the indicated groups.
Animals were divided into four groups (n=5). 0.5% (w/v) suspension of carrageenan in normal saline was administered to male Wistar rats (7-weeks) by intradermal injection into the base of the right hind paw. […] A positive control group was included in which rats were pretreated with 5 mg/kg Indomethacin. Three hours after carrageenan administration, the thickness and volume of the right hind paw were measured by digital caliper and digital plethysmometer (Diagnostic & Research Instruments CO., Ltd, Taipei, Taiwan), respectively.
Another series concerns collagen I. In words: TGF-β-induced collagen I production, Western blot. It is filed as cell-based, human. The conditions noted are these: WI-38 lung fibroblasts; 1 μM pretreatment; TGF-β 10 ng/mL 24 h. As to the method: (§1) Western blot analysis was performed. First, WI-38 lung fibroblasts were incubated with different concentrations of MPT0E028 (0.01, 0.03, 0.1, 0.3, or 1 μM) (FIG. 10A) or MPT0G009 (0.01, 0.03, 0.1, 0.3, or 1 μM) (FIG. 10B) for 30 min before and during incubation for 2 h with TGF-β (10 ng/mL). WI-38 lung fibroblasts were incubated with 1 μM MPT0E028 and MPT0G009 for 30 min and following another incubation for 2 h with 1 U/ml thrombin (FIG. 10C) and 10 nM ET-1 (FIG. 10D). The collagen I production from WI-38 lung fibroblasts stimulated by 10 ng/mL TGF-β for 24 h was inhibited with 1 μM MPT0E028 and MPT0G009 pretreatment (FIG. 10E).
WI-38 cells, a normal human embryonic lung fibroblast cell line, were obtained from American Type Culture Collection (Manassas, Va.). […]
Western blot analyses were performed as described previously (Chen B C, Chang Y S, Kang J C, Hsu M J, Sheu J R, Chen T L, et al. Peptidoglycan induces nuclear factor-kappaB activation and cyclooxygenase-2 expression via Ras, Raf-1, and ERK in RAW 264.7 macrophages. J Biol Chem 2004; 279:20889-97). […] The immunoreactivity was detected using enhanced chemiluminescence (ECL) following the manufacturer's instructions. Quantitative data were obtained using a computing densitometer with scientific imaging systems (Kodak, Rochester, N.Y.). […]

The test system of another series is CTGF. Briefly: pro-fibrogenic mediator-induced CTGF production, Western blot. Type of series: cell-based, human. The conditions noted are these: WI-38 lung fibroblasts. As to the method:
as §1
WI-38 cells, a normal human embryonic lung fibroblast cell line, were obtained from American Type Culture Collection (Manassas, Va.). Cells were grown in MEM nutrient mixture, containing 10% FCS, 2 mM L-glutamine, 0.1 mM NEAA, 1 mM sodium pyruvate, 50 U/ml penicillin G, and 100 μg/ml streptomycin, in a humidified 37° C. incubator with 5% CO2 Cells were used between passages 18 and 30 for all experiments. After reaching confluence, cells were seeded onto 6-cm dishes for immunoblotting.
Western blot analyses were performed as described previously (Chen B C, Chang Y S, Kang J C, Hsu M J, Sheu J R, Chen T L, et al. Peptidoglycan induces nuclear factor-kappaB activation and cyclooxygenase-2 expression via Ras, Raf-1, and ERK in RAW 264.7 macrophages. J Biol Chem 2004; 279:20889-97). Briefly, WI-38 lung fibroblasts were cultured in 6-cm dishes. After reaching confluence, cells were pretreated with specific inhibitors (E028 and G009) as indicated for 30 min, and then treated with the vehicle (H2O) or 10 ng/ml TGF-β for 2 h (CTGF assay) or 24 h (collagen I assay). Whole-cell lysates ([…]) were subjected to 12% (CTGF) or 8% (collagen I) SDS-PAGE, and transferred onto a polyvinylidene difluoride membrane which was then incubated in TBST buffer (150 mM NaCl, 20 mM Tris-HCl, and 0.02% Tween 20; pH 7.4) containing 5% BSA. Proteins were visualized by specific primary antibodies and then incubated with HRP-conjugated secondary antibodies. The immunoreactivity was detected using enhanced chemiluminescence (ECL) following the manufacturer's instructions. Quantitative data were obtained using a computing densitometer with scientific imaging systems (Kodak, Rochester, N.Y.).
To determine whether the inhibitory effects of MPT0E028 and MPT0G009 on pro-fibrogenic mediators (TGF-β, thrombin, and ET-1) were related to the modulation of CTGF and Collagen I production, Western blot analysis was performed. First, WI-38 lung fibroblasts were incubated with different concentrations of MPT0E028 (0.01, 0.03, 0.1, 0.3, or 1 μM) (FIG. 10A) or MPT0G009 (0.01, 0.03, 0.1, 0.3, or 1 μM) (FIG. 10B) for 30 min before and during incubation for 2 h with TGF-β (10 ng/mL). […] Furthermore, we examined the effects of MPT0E028 and MPT0G009 on other pro-fibrogenic mediators. As shown in FIGS. 10C and 10D, WI-38 lung fibroblasts were incubated with 1 μM MPT0E028 and MPT0G009 for 30 min and following another incubation for 2 h with 1 U/ml thrombin (FIG. 10C) and 10 nM ET-1 (FIG. 10D).

The subject of series [3] is prostaglandin E2 (PGE2). In words: LPS-induced PGE2 production by RA-FLS. It is filed as cell-based. The settings on record: MPT0G009 0.1, 1, 10 μM; SAHA 0.3, 3, 30 μM; LPS 25 ng/mL 24 h. As for the experimental part: (§2) (FIG. 1A) Structure of MPT0G009. […] Results in (FIGS. 1B-E) and (FIG. 1G) are means±SEM's for three independent experiments, *p<0.05 and **p<0.01 compared with no added inhibitor.
(§3) Furthermore, the anti-inflammatory effects of MPT0G009 was evaluated. […] These supernatants were then assayed for PGE2, NO, and IL-6.

Series [4] relates to inducible nitric oxide synthase (iNOS). In words: LPS-induced iNOS protein expression, Western blot, RAW264.7. Type of series: cell-based, Mouse. The settings on record: RAW264.7, 0.1-10 μM, LPS 25 ng/mL 24 h. As to the method:
(§4) Then the cells were harvested and whole cell extracts were prepared for Western blot analysis for iNOS and COX-2. The relative protein expressions are presented as mean±SEM for four replicates. *p<0.05 compared to the LPS-treated group.

Another series has as its system HDAC3. Briefly: HDAC isoform protein levels, Western blot, RA-FLS. The conditions noted are these: 12 or 24 h; 1 μM MPT0G009 or 30 μM SAHA. Type of series: cell-based. As for the experimental part:
Then cells were harvested and cell lysates were prepared for Western blot analysis of the indicated proteins. (FIG. 5C) RA-FLS were incubated for 1 h with or without the proteasome inhibitor, MG132 (1 μM). […] Results shown are representative of three independent experiments.

For a further series, the system named is IL-6. Briefly: IL-1β-induced IL-6 production by RA-FLS. It is filed as cell-based. The conditions noted are these: MPT0G009 0.1, 1, 10 μM; SAHA 0.3, 3, 30 μM; IL-1β 10 ng/mL 24 h. As for the experimental part: as §2, §3
Series [5] relates to RA-FLS. In words: cell cycle distribution by flow cytometry (propidium iodide). It is filed as cell-based. The conditions noted are these: 24 h.
Source text: as §2

The next series relates to cyclooxygenase-2 (COX-2). In words: LPS-induced COX-2 protein expression, Western blot, RAW264.7. It is filed as cell-based, Mouse. The conditions noted are these: RAW264.7, 0.1-10 μM, LPS 25 ng/mL 24 h. As for the experimental part: as §4
The subject of the next series is p21. Briefly: p21 expression by flow cytometry or western blot in RA-FLS. It is filed as cell-based. The settings on record: 24 h, 1 μM MPT0G009 or 3 μM SAHA.
Source text: as §2

For series [6] the following is noted: rats, SAHA (reference 30), cited from earlier work.
Series [7] has as its system RA-FLS. In words: SRB anti-proliferation assay. It is filed as cell-based. The conditions noted are these: 24 or 48 h incubation.
Source text: as §2

The next series deals with HIG-82 synoviocytes. Briefly: SRB anti-proliferation assay. Type of series: cell-based. The settings on record: 24 or 48 h incubation.
Source text: as §2

The next series relates to nitric oxide (NO). In words: LPS-induced nitric oxide production in RAW 264.7 macrophages. Type of series: cell-based, Mouse. The conditions noted are these: MPT0G009 0.1, 1, 10 μM; SAHA 0.3, 3, 30 μM; LPS 25 ng/mL 24 h. As for the experimental part: Nitrite concentration was determined using a dilution of sodium nitrite as a standard.
as §3

For series [8], the system named is prostaglandin E2 (PGE2). Briefly: LPS-induced PGE2 production in RAW 264.7 macrophages. Type of series: cell-based, Mouse. The settings on record: MPT0G009 0.1, 1, 10 μM; SAHA 0.3, 3, 30 μM; LPS 25 ng/mL 24 h. As for the experimental part:
as §3

A further series deals with RAW264.7 macrophages. Briefly: M-CSF/RANKL-induced osteoclast formation. It is filed as cell-based, Mouse. The conditions noted are these: 5 nM MPT0G009 or 50 nM SAHA; M-CSF/RANKL 50 ng/mL, 5 days. As to the method:
Cells were then tartrate resistant acid phosphatase (TRAP) stained, and the numbers of TRAP-positive multinuclear cells were counted. […] Images are at ×100 magnification, and the arrows indicate differentiated osteoclasts. (FIG. 6C) RAW264.7 cells were treated as in (FIG. 6B), then incubated with a fluorescein isothiocyanate (FITC)-conjugated anti-CD51/61 antibody and analyzed by flow cytometry. (FIGS. 6D and 6E) RAW264.7 cells (1×10^5) were transfected with 1 μg of pGL4.32[luc2P/NF-κB-RE/Hygro] (FIG. 6D) or pGL4.30[luc2P/NFAT-RE/Hygro] (FIG. 6E) for 24 h and then incubated for 30 min with or without MPT0G009 (5 nM). Then RANKL (50 ng/mL) was added and incubation was continued for an additional 24 h, after which luciferase activity was determined. Results in (FIGS. 6A, 6D, and 6E) are the means±SEM's for three independent experiments. **p<0.01 compared with the indicated controls.
Bone destruction is one characteristic of RA pathogenesis, resulting in joint dysfunction. Differentiation of mouse macrophages osteoclast-like cells can be induced in the presence of M-CSF and RANKL, which has been used as a model to investigate osteoclast differentiation. […] Subsequently, multinucleate tartrate resistant acid phosphatase (TRAP)-positive cells were counted.

The structures appear in SMILES notation. Like-named read-outs stand apart in the source and are kept apart here.

Consider `COc1ccc2c(c1)c(CC(=O)O)c(C)n2C(=O)c1ccc(Cl)cc1` [Indomethacin, reference compound], for which, in [1], the “serum levels of IL-1β” value was “significant decreases” and the “serum levels of IL-6” value is listed as “significant decreases”. Besides, in series [2], the “carrageenan-induced hind paw edema” value was “suppressed”.

Turning to `O=C(/C=C/c1ccc2c(c1)CCN2S(=O)(=O)c1ccccc1)NO` [MPT0E028], the “collagen I production” value with collagen I was “inhibited”. The “ET-1-induced CTGF expression” value in the series on CTGF (1 μM, 10 nM ET-1 2 h) is on record as “inhibited”. The “thrombin-induced CTGF expression” value in the series with CTGF (1 μM, 1 U/ml thrombin 2 h) is listed as “inhibited”. Besides, the “TGF-β-induced CTGF production” value in the series with CTGF (0.01-1 μM, TGF-β 10 ng/mL 2 h) is on record as “significantly inhibited”.

`O=C(CCCCCCC(=O)Nc1ccccc1)NO` [SAHA, Suberanilohydroxamic Acid, reference compound]: in the series on prostaglandin E2 (PGE2) [3], the “PGE2 production by RA-FLS” value is recorded as “inhibited”. The iNOS protein expression result in [4] is given as “significantly inhibited”. Also, the iNOS protein expression result in series [4] (listed as SAHA (1)) is “concentration-dependently inhibitory effects”. The “levels of HDAC3 in RA-FLS” value in the series on HDAC3 is on record as “no effect”. For the same compound, in the series with IL-6, the “IL-6 production by RA-FLS” value was “inhibited”. Also, the “subG1 peak (cellular apoptosis)” value in the series on RA-FLS [5] (MPT0G009 1-1000 nM, SAHA 3-3000 nM) was “did not increase the subG1 peak”. Further, in the series on RA-FLS [5] (all concentrations of both agents), the G0/G1 phase arrest result was “G0/G1 phase arrest was observed”. The COX-2 protein expression result in the series on cyclooxygenase-2 (COX-2) is listed as “significantly inhibited”. Moreover, the COX-2 protein expression result in the series on cyclooxygenase-2 (COX-2) (listed as SAHA (1)) was “concentration-dependently inhibitory effects”. Further, the “expression of p21” value in the series on p21 was “significantly increased”. Besides, in series [1], the “serum levels of IL-1β” value is recorded as “significant decreases” and the “serum levels of IL-6” value is recorded as “significant decreases”. Also, the “paw thickness reduced compared to control” value in [2] (SAHA 200 mg/kg oral, 3 h after carrageenan) is recorded as 15.7%. For the same compound, the “carrageenan-induced hind paw edema” value in [2] is “significantly inhibited”. In addition, the “carrageenan-induced hind paw edema” value in [2] (listed as SAHA (1)) was “suppress”. In series [6] (iv 2 mg/kg), the “AUC(0-inf)” value was 278 ng·h/mL, the CL is 134 mL/min/kg, the T1/2 is 38.4 min and the distribution volume (Vd) is 3.92 L/kg. For the same compound, in series [6] (po 5 mg/kg), the “AUC(0-inf)” value was 49.40 ng·h/mL, the Cmax was 83.90 ng/mL, the F was 6.9% and the T1/2 was 67.8 min. For the same compound, the Tmax in series [6] (po 5 mg/kg) is 10.2 min. Besides, the “proliferation of RA-FLS” value in the series on RA-FLS [7] is “concentration-dependent anti-proliferative effects”. Also, the “proliferation of HIG-82 synoviocytes” value in the series with HIG-82 synoviocytes is “concentration-dependent anti-proliferative effects”. For the same compound, the “NO production by RAW264.7 cells” value with nitric oxide (NO) was “inhibited”. In addition, the “PGE2 production by RAW264.7 cells” value in the series on prostaglandin E2 (PGE2) [8] is “inhibited”. In the series with RAW264.7 macrophages, the “expression of osteoclast-specific marker CD51/61” value is “no effect” and the “formation of M-CSF/RANKL-induced TRAP-positive cells” value was “no effect”.

These data come from patent US20150368195A1, “INDOLINE COMPOUNDS FOR TREATMENT AND/OR PREVENTION OF INFLAMMATION DISEASES” (Taipei Medical University, priority 2014, published 2015).
